Reference: US7985889B2, “AtMIN7 mediated disease resistance to Pseudomonas syringae in Arabidopsis” (priority 2007, dated 2011)

Tests used:
Assay in all cases: Brefeldin A treatment of bacteria-infiltrated detached Arabidopsis leaves: bacterial multiplication and disease symptoms
Type in all cases: in vivo
Pst DC3000 ΔCEL mutant = tested on: Pst DC3000 ΔCEL mutant
Protocol: (§1) A standard enumeration procedure involves pathogen inoculation, using any one of described methods, supra, followed by assaying bacterial populations present within host tissues at regular intervals. The population present within the tissue was calculated based on the dilution factor divided by the amount of tissue present in each sample. Plotting log (culturable bacterial number/cm^2 leaf tissue) against time (usually in days) after pathogen inoculation produced an unfitted curve, i.e. growth curve. For a review of methods, see, Katagiri et al., in The Arabidopsis Book, Somerville, Meyerowitz, Eds. (American Society of Plant Biologists, Rockville, Md., 2002), website://dx.doi.org/10.1199/tab.0039; herein incorporated by reference.
(§2) Leaves were harvested and surface sterilized as follows: 1) whole leaves were removed from a host plant and gently mixed in a 70% ethanol solution for 1 minute. Leaves were blotted briefly on paper towels then rinsed in sterile distilled water for 1 minute, then blotted dry on paper towels. Leaf disks were excised from leaves with a 0.5 cm^2 or smaller cork borer, depending on the size of the sample leaves; 2) leaf disks from the leaves of 2 or more independent replicate plants were pooled for a single tissue sample and placed in a 1.5-mL microfuge tube with 100 μL sterile distilled water, the amount of leaf tissue per tube was recorded as leaf surface area. Three or more samples were harvested for each time point. Steps 1 and 2 were repeated for each sample; 3) Tissue samples were ground with a microfuge tube plastic pestle, by hand or by using a small hand-held electric drill. […] The number of serial dilutions necessary to get countable colonies were determined for each sample, however dilutions to 10^−7 were usually sufficient for any bacterial strain; 7) The samples were plated on the appropriate medium (e.g., Low salt Luria Bertani) supplemented with the necessary antibiotics to select for the specific inoculated bacterial strain. Plating was done in the traditional way (100 μL of a single sample was spread on a single plate) or several 10 μL aliquots of the 1:10 serial dilutions were spotted on to a single plate and allowed to dry onto the surface; and 8) Plates were placed at 30° C. for approximately 2 days with a cfu value determined for each dilution of each sample. […]
(§3) Leaves were infiltrated with 1×10^6 cfu/ml of bacteria, detached, and placed in microtiter wells with petioles immersed in the 36 μM BFA (Sigma Co.) solution. […] Bacterial populations and disease symptoms were determined on day 0 and day three.

Pst DC3000 = settings: Col-0 gl1 plants treated with water or BFA
Protocol: as §1, §2, §3

hrcC mutant = settings: Col-0 gl1 plants treated with water or BFA
Protocol: as §1, §2, §3

C[C@H]1CCC/C=C/[C@@H]2C[C@H](O)C[C@H]2[C@H](O)/C=C/C(=O)O1 [BFA, Brefeldin A]
virulence (both multiplication and disease symptoms) of the Pst DC3000 ΔCEL mutant (Pst DC3000 ΔCEL mutant; 36 μM BFA, wild-type Col-0 gl1 leaves infiltrated with 1×10^6 cfu/ml, day three, vs water): significantly enhanced | restoration of the virulence of the Pst DC3000 ΔCEL mutant, BFA-treated leaves compared with AtMIN7 KO plants (Pst DC3000 ΔCEL mutant; BFA-treated leaves): greater than that in the AtMIN7 KO plants | multiplication or disease symptoms caused by Pst DC3000 (Pst DC3000): no significant differences | multiplication or disease symptoms caused by the hrcC mutant (hrcC mutant): no significant differences
